# Test results as given in PubChem BioAssay (NCI).
#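 Growth conditions: 96-well plates. Treatment: test compound, 48 hours, 5 concentrations. Analysis: linear interpolation between bracketing concentrations; unreached endpoints set to highest concentration. Here, GI50 denotes the concentration required for 50% inhibition of growth. At the TGI there is no net growth.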
# Experiments:
# Test in all cases: NCI tumour cell line growth inhibition, 48 h
# UACC-257 melanoma = system: UACC-257 melanoma
# NCI/ADR-RES ovarian = system: NCI/ADR-RES ovarian
# MCF7 breast = system: MCF7 breast
# SNB-19 CNS = system: SNB-19 CNS
# MDA-MB-468 breast = system: MDA-MB-468 breast
# SR leukemia = system: SR leukemia
# RPMI-8226 leukemia = system: RPMI-8226 leukemia
# DU-145 prostate = system: DU-145 prostate
# UACC-62 melanoma = system: UACC-62 melanoma
# HOP-92 NSCLC = system: HOP-92 NSCLC
# MDA-MB-435 = system: MDA-MB-435
# SW-620 colon = system: SW-620 colon
# SF-295 CNS = system: SF-295 CNS
# TK-10 renal = system: TK-10 renal
# OVCAR-5 ovarian = system: OVCAR-5 ovarian
# U251 CNS = system: U251 CNS
# SF-268 CNS = system: SF-268 CNS
# IGROV1 ovarian = system: IGROV1 ovarian
# SF-539 CNS = system: SF-539 CNS
# M14 melanoma = system: M14 melanoma
# OVCAR-8 ovarian = system: OVCAR-8 ovarian
# 786-0 renal = system: 786-0 renal
# HS 578T breast = system: HS 578T breast
# MDA-MB-231 breast = system: MDA-MB-231 breast
# SK-MEL-28 melanoma = system: SK-MEL-28 melanoma
# OVCAR-3 ovarian = system: OVCAR-3 ovarian
# SN12C renal = system: SN12C renal
# BT-549 breast = system: BT-549 breast
# HCT-116 colon = system: HCT-116 colon
# K-562 leukemia = system: K-562 leukemia
# ACHN renal = system: ACHN renal
# SK-MEL-2 melanoma = system: SK-MEL-2 melanoma
# CCRF-CEM leukemia = system: CCRF-CEM leukemia
# HCC-2998 colon = system: HCC-2998 colon
# A549 NSCLC = system: A549 NSCLC
# EKVX NSCLC = system: EKVX NSCLC
# HOP-62 NSCLC = system: HOP-62 NSCLC
# OVCAR-4 ovarian = system: OVCAR-4 ovarian
# HL-60(TB) leukemia = system: HL-60(TB) leukemia
# NCI-H226 lung = system: NCI-H226 lung
# HCT-15 colon = system: HCT-15 colon
# SK-OV-3 ovarian = system: SK-OV-3 ovarian
# RXF 393 renal = system: RXF 393 renal
# UO-31 renal = system: UO-31 renal
# PC-3 prostate = system: PC-3 prostate
# NCI-H460 lung = system: NCI-H460 lung
# CAKI-1 renal = system: CAKI-1 renal
# MOLT-4 leukemia = system: MOLT-4 leukemia
# HT29 colon = system: HT29 colon
# MALME-3M melanoma = system: MALME-3M melanoma
# SK-MEL-5 melanoma = system: SK-MEL-5 melanoma
# COLO 205 colon = system: COLO 205 colon
# NCI-H522 lung = system: NCI-H522 lung
# KM12 colon = system: KM12 colon
# LOX IMVI melanoma = system: LOX IMVI melanoma
# A498 renal = system: A498 renal
# NCI-H23 lung = system: NCI-H23 lung
# T-47D breast = system: T-47D breast
# SNB-75 CNS = system: SNB-75 CNS
compound,measurement,setting,value
C=CC(=O)Nc1ccc(C(=O)/C=C/c2ccc(N(C)C)cc2)c(O)c1,GI50,UACC-257 melanoma,3.5 µM
same,TGI,UACC-257 melanoma,18.6 µM
same,GI50,NCI/ADR-RES ovarian,2.2 µM
same,TGI,NCI/ADR-RES ovarian,6.83 µM
same,GI50,MCF7 breast,1.88 µM
same,TGI,MCF7 breast,17 µM
same,GI50,SNB-19 CNS,3.72 µM
same,TGI,SNB-19 CNS,16.1 µM
same,GI50,MDA-MB-468 breast,1.61 µM
same,TGI,MDA-MB-468 breast,6.17 µM
same,GI50,SR leukemia,1.1 µM
same,TGI,SR leukemia,> 100 µM
same,GI50,RPMI-8226 leukemia,2.91 µM
same,TGI,RPMI-8226 leukemia,12 µM
same,GI50,DU-145 prostate,2.93 µM
same,TGI,DU-145 prostate,12.6 µM
same,GI50,UACC-62 melanoma,1.76 µM
same,TGI,UACC-62 melanoma,6.54 µM
same,GI50,HOP-92 NSCLC,1.78 µM
same,TGI,HOP-92 NSCLC,17 µM
same,GI50,MDA-MB-435,2.92 µM
same,TGI,MDA-MB-435,14 µM
same,GI50,SW-620 colon,1.67 µM
same,TGI,SW-620 colon,3.89 µM
same,GI50,SF-295 CNS,5.69 µM
same,TGI,SF-295 CNS,37.1 µM
same,GI50,TK-10 renal,3.16 µM
same,TGI,TK-10 renal,11.8 µM
same,GI50,OVCAR-5 ovarian,2.55 µM
same,TGI,OVCAR-5 ovarian,10.7 µM
same,GI50,U251 CNS,2.73 µM
same,TGI,U251 CNS,11.9 µM
same,GI50,SF-268 CNS,4 µM
same,TGI,SF-268 CNS,22.9 µM
same,GI50,IGROV1 ovarian,3.51 µM
same,TGI,IGROV1 ovarian,15.1 µM
same,GI50,SF-539 CNS,1.71 µM
same,TGI,SF-539 CNS,3.78 µM
same,GI50,M14 melanoma,1.97 µM
same,TGI,M14 melanoma,6.62 µM
same,GI50,OVCAR-8 ovarian,1.68 µM
same,TGI,OVCAR-8 ovarian,4.28 µM
same,GI50,786-0 renal,2.18 µM
same,TGI,786-0 renal,7.94 µM
same,GI50,HS 578T breast,3.26 µM
same,TGI,HS 578T breast,> 100 µM
same,GI50,MDA-MB-231 breast,2.41 µM
same,TGI,MDA-MB-231 breast,7.49 µM
same,GI50,SK-MEL-28 melanoma,2.02 µM
same,TGI,SK-MEL-28 melanoma,6.44 µM
same,GI50,OVCAR-3 ovarian,2.79 µM
same,TGI,OVCAR-3 ovarian,13.2 µM
same,GI50,SN12C renal,2.03 µM
same,TGI,SN12C renal,8.27 µM
same,GI50,BT-549 breast,1.39 µM
same,TGI,BT-549 breast,5.17 µM
same,GI50,HCT-116 colon,1.49 µM
same,TGI,HCT-116 colon,2.9 µM
same,GI50,K-562 leukemia,3.07 µM
same,TGI,K-562 leukemia,> 100 µM
same,GI50,ACHN renal,1.74 µM
same,TGI,ACHN renal,3.79 µM
same,GI50,SK-MEL-2 melanoma,2.94 µM
same,TGI,SK-MEL-2 melanoma,11.5 µM
same,GI50,CCRF-CEM leukemia,2.56 µM
same,TGI,CCRF-CEM leukemia,> 100 µM
same,GI50,HCC-2998 colon,2.41 µM
same,TGI,HCC-2998 colon,8.77 µM
same,GI50,A549 NSCLC,2.57 µM
same,TGI,A549 NSCLC,16.1 µM
same,GI50,EKVX NSCLC,5.76 µM
same,TGI,EKVX NSCLC,25.8 µM
same,GI50,HOP-62 NSCLC,3.15 µM
same,TGI,HOP-62 NSCLC,13.3 µM
same,GI50,OVCAR-4 ovarian,4.08 µM
same,TGI,OVCAR-4 ovarian,43.6 µM
same,GI50,HL-60(TB) leukemia,2.54 µM
same,TGI,HL-60(TB) leukemia,8.45 µM
same,GI50,NCI-H226 lung,2.46 µM
same,TGI,NCI-H226 lung,11.3 µM
same,GI50,HCT-15 colon,1.58 µM
same,TGI,HCT-15 colon,3.75 µM
same,GI50,SK-OV-3 ovarian,9.3 µM
same,TGI,SK-OV-3 ovarian,26.7 µM
same,GI50,RXF 393 renal,1.43 µM
same,TGI,RXF 393 renal,3.5 µM
same,GI50,UO-31 renal,1.31 µM
same,TGI,UO-31 renal,14.3 µM
same,GI50,PC-3 prostate,4.57 µM
same,TGI,PC-3 prostate,60.6 µM
same,GI50,NCI-H460 lung,2.75 µM
same,TGI,NCI-H460 lung,10.9 µM
same,GI50,CAKI-1 renal,2.85 µM
same,TGI,CAKI-1 renal,10.3 µM
same,GI50,MOLT-4 leukemia,2.8 µM
same,TGI,MOLT-4 leukemia,> 100 µM
same,GI50,HT29 colon,2.37 µM
same,TGI,HT29 colon,7.08 µM
same,GI50,MALME-3M melanoma,2.19 µM
same,TGI,MALME-3M melanoma,10.6 µM
same,GI50,SK-MEL-5 melanoma,3.08 µM
same,TGI,SK-MEL-5 melanoma,12.9 µM
same,GI50,COLO 205 colon,3.49 µM
same,TGI,COLO 205 colon,11.9 µM
same,GI50,NCI-H522 lung,1.5 µM
same,TGI,NCI-H522 lung,3.11 µM
same,GI50,KM12 colon,3.19 µM
same,TGI,KM12 colon,12.5 µM
same,GI50,LOX IMVI melanoma,1.46 µM
same,TGI,LOX IMVI melanoma,3.28 µM
same,GI50,A498 renal,10.5 µM
same,TGI,A498 renal,36.8 µM
same,GI50,NCI-H23 lung,3.26 µM
same,TGI,NCI-H23 lung,14.1 µM
same,GI50,T-47D breast,2.33 µM
same,TGI,T-47D breast,12.6 µM
same,GI50,SNB-75 CNS,3.27 µM
same,TGI,SNB-75 CNS,14.8 µM
